Target: T1, human M1 receptor (Homo sapiens, UniProt P11229)
T1 sequence (P11229 1-460): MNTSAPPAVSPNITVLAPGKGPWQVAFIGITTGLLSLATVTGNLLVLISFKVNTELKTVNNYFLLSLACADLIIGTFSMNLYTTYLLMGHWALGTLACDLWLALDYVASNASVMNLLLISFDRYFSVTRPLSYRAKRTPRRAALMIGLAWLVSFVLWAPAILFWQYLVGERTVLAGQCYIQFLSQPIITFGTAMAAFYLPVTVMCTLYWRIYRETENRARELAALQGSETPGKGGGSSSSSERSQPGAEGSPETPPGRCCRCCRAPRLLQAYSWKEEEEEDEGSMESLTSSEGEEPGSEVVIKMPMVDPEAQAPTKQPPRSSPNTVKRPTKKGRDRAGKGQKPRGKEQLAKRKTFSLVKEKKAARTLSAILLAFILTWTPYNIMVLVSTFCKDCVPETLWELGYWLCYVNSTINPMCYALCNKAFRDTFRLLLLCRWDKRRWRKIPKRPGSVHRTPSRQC
Assay: In vitro functional assay of muscarinic acetylcholine receptor activity (aequorin calcium flux, reversal of EC80 acetylcholine response)
Format: cell-based
Settings: CHO-K1 cells stably expressing human M1 receptor with aequorin; acetylcholine at EC80; calcium flux (luminescence); read-out: M1 IC50
How it was run: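 Antagonist mode: compound (final 0.1% DMSO) and coelenterazine-loaded M1/aequorin CHO-K1 cells incubated 30 min in the dark before EC80 acetylcholine addition. Calcium flash integrated as 40 s luminescence AUC; IC50 derived from dose-response curves.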

Compared with `N#Cc1ccc(N2[C@@H]3CC[C@H]2CN(C(=O)CCNC2(c4ccc(F)c(Cl)c4)CC2)C3)nc1` [Example 35, 6-(3-(3-((1-(3-chloro-4-fluorophenyl)cyclopropyl)amino)propanoyl)-3,8-diazabicyclo[3.2.1]octan-8-yl)nicotinonitrile], `N#Cc1ccc(N2[C@@H]3CC[C@H]2CN(C(=O)CCNC2(c4ccc(F)c(F)c4)CCC2)C3)nc1` [Example 37, 6-(3-(3-((1-(3,4-difluorophenyl)cyclobutyl)amino)propanoyl)-3,8-diazabicyclo[3.2.1]octan-8-yl)nicotinonitrile] is lower in IC50: 10 to 100 nM for the first, < 10 nM for the second.

First: COc1cc(C2(NCCC(=O)N3CC4CCC(C3)N4c3ccc(C#N)cn3)CC2)ccn1 [Example 36, 6-(3-(3-((1-(2-methoxypyridin-4-yl)cyclopropyl)amino)propanoyl)-3,8-diazabicyclo[3.2.1]octan-8-yl)nicotinonitrile]
Second: COc1cc(C2(NCC(=O)N3CC4CCC(C3)N4c3ccc(C#N)cn3)CC2)ccn1 [Example 73, 6-(3-((1-(2-methoxypyridin-4-yl)cyclopropyl)glycyl)-3,8-diazabicyclo[3.2.1]octan-8-yl)nicotinonitrile]
The IC50 of the first is higher: 1000 to 10000 nM for the first, 10 to 100 nM for the second. The second is the more potent here.

Compared with `N#Cc1ccc(N2[C@@H]3COC[C@H]2CN(C(=O)CCNC2(c4ccc(F)c(F)c4)CC2)C3)nc1` [Example 39, 6-(7-(3-((1-(3,4-difluorophenyl)cyclopropyl)amino)propanoyl)-3-oxa-7,9-diazabicyclo[3.3.1]nonan-9-yl)nicotinonitrile], `N#Cc1ccc(N2[C@@H]3C[C@H]2CN(C(=O)CCNC2(c4ccc(F)c(F)c4)CC2)C3)nc1` [Example 40, 6-(3-(3-((1-(3,4-difluorophenyl)cyclopropyl)amino)propanoyl)-3,6-diazabicyclo[3.1.1]heptan-6-yl)nicotinonitrile] is higher in IC50: 100 to 1000 nM for the first, 1000 to 10000 nM for the second. The first is the more potent here.

`N#Cc1ccc(N2C[C@H]3CC[C@@H]2CN3C(=O)CCNC2(c3ccc(F)c(F)c3)CC2)nc1` [Example 41, 6-((1R,4R)-5-(3-((1-(3,4-difluorophenyl)cyclopropyl)amino)propanoyl)-2,5-diazabicyclo[2.2.2]octan-2-yl)nicotinonitrile] and `N#Cc1ccc(N2C3CCC2CN(C(=O)CNC2(c4ccc(F)c(F)c4)CC2)C3)nc1` [Example 60, 6-(3-((1-(3,4-difluorophenyl)cyclopropyl)glycyl)-3,8-diazabicyclo[3.2.1]octan-8-yl)nicotinonitrile] fall in the same range of IC50: 10 to 100 nM for the first, 10 to 100 nM for the second.

Compared with `N#Cc1ccc(N2[C@@H]3CC[C@H]2CN(C(=O)CCNC2(c4ccc(F)c(F)c4)CC2)C3)nn1` [Example 42, 6-(3-(3-((1-(3,4-difluorophenyl)cyclopropyl)amino)propanoyl)-3,8-diazabicyclo[3.2.1]octan-8-yl)pyridazine-3-carbonitrile], `Cc1ccc(N2[C@@H]3CC[C@H]2CN(C(=O)CCNC2(c4ccc(F)c(F)c4)CC2)C3)nn1` [Example 47, 3-((1-(3,4-difluorophenyl)cyclopropyl)amino)-1-(8-(6-methylpyridazin-3-yl)-3,8-diazabicyclo[3.2.1]octan-3-yl)propan-1-one] is higher in IC50: < 10 nM for the first, 10 to 100 nM for the second.

First: N#Cc1cc(N2[C@@H]3CC[C@H]2CN(C(=O)CCNC2(c4ccc(F)c(F)c4)CC2)C3)ccn1 [Example 43, 4-(3-(3-((1-(3,4-difluorophenyl)cyclopropyl)amino)propanoyl)-3,8-diazabicyclo[3.2.1]octan-8-yl)picolinonitrile]
Second: N#Cc1ccc(N2[C@@H]3CC[C@H]2CN(C(=O)CCNC2(c4ccc(F)c(F)c4)CC2)C3)cn1 [Example 46, 5-(3-(3-((1-(3,4-difluorophenyl)cyclopropyl)amino)propanoyl)-3,8-diazabicyclo[3.2.1]octan-8-yl)picolinonitrile]
The IC50 of the first is higher: 10 to 100 nM for the first, < 10 nM for the second.

First: N#Cc1cnc(N2[C@@H]3CC[C@H]2CN(C(=O)CCNC2(c4ccc(F)c(F)c4)CC2)C3)nc1 [Example 44, 2-(3-(3-((1-(3,4-difluorophenyl)cyclopropyl)amino)propanoyl)-3,8-diazabicyclo[3.2.1]octan-8-yl)pyrimidine-5-carbonitrile]
Second: N#Cc1cnc(N2[C@@H]3CC[C@H]2CN(C(=O)CCNC2(c4ccc(F)c(F)c4)CC2)C3)cn1 [Example 45, 5-(3-(3-((1-(3,4-difluorophenyl)cyclopropyl)amino)propanoyl)-3,8-diazabicyclo[3.2.1]octan-8-yl)pyrazine-2-carbonitrile]
The IC50 of the first is higher: 100 to 1000 nM for the first, 10 to 100 nM for the second.

`N#Cc1ccc(N2C3CCC2CN(C(=O)CNC2(c4ccccc4F)CC2)C3)nc1` [Example 61, 6-(3-((1-(2-fluorophenyl)cyclopropyl)glycyl)-3,8-diazabicyclo[3.2.1]octan-8-yl)nicotinonitrile] and `N#Cc1ccc(N2C3CCC2CN(C(=O)CNC2(c4cccc(F)c4F)CC2)C3)nc1` [Example 70, 6-(3-((1-(2,3-difluorophenyl)cyclopropyl)glycyl)-3,8-diazabicyclo[3.2.1]octan-8-yl)nicotinonitrile] fall in the same range of IC50: 100 to 1000 nM for the first, 100 to 1000 nM for the second.

`N#Cc1ccc(N2C3CCC2CN(C(=O)CNC2(c4cccc(C#N)c4)CC2)C3)nc1` [Example 62, 6-(3-((1-(3-cyanophenyl)cyclopropyl)glycyl)-3,8-diazabicyclo[3.2.1]octan-8-yl)nicotinonitrile] and `N#Cc1ccc(N2C3CCC2CN(C(=O)CNC2(c4c(F)cccc4F)CC2)C3)nc1` [Example 72, 6-(3-((1-(2,6-difluorophenyl)cyclopropyl)glycyl)-3,8-diazabicyclo[3.2.1]octan-8-yl)nicotinonitrile] fall in the same range of IC50: 100 to 1000 nM for the first, 100 to 1000 nM for the second.

First: N#Cc1ccc(N2C3CCC2CN(C(=O)CNC2(c4ccccn4)CC2)C3)nc1 [Example 63, 6-(3-((1-(pyridin-2-yl)cyclopropyl)glycyl)-3,8-diazabicyclo[3.2.1]octan-8-yl)nicotinonitrile]
Second: N#Cc1ccc(N2C3CCC2CN(C(=O)CNC2(c4cccnn4)CC2)C3)nc1 [Example 64, 6-(3-((1-(pyridazin-3-yl)cyclopropyl)glycyl)-3,8-diazabicyclo[3.2.1]octan-8-yl)nicotinonitrile]
The IC50 of the first is higher: 1000 to 10000 nM for the first, 100 to 1000 nM for the second. The second is the more potent here.

`COc1ccccc1[C@H](C)NCC(=O)N1CC2CCC(C1)N2c1ccc(C#N)cn1` [Example 65, 6-(3-(((S)-1-(2-methoxyphenyl)ethyl)glycyl)-3,8-diazabicyclo[3.2.1]octan-8-yl)nicotinonitrile] and `COc1cc([C@H](C)NCC(=O)N2CC3CCC(C2)N3c2ccc(C#N)cn2)ccc1F` [Example 66, 6-(3-(((S)-1-(4-fluoro-3-methoxyphenyl)ethyl)glycyl)-3,8-diazabicyclo[3.2.1]octan-8-yl)nicotinonitrile] cannot be ordered by IC50: < 10 nM for the first, < 10 nM for the second.

`COc1ccc(F)c([C@H](C)NCC(=O)N2CC3CCC(C2)N3c2ccc(C#N)cn2)c1` [Example 67, 6-(3-(((S)-1-(2-fluoro-5-methoxyphenyl)ethyl)glycyl)-3,8-diazabicyclo[3.2.1]octan-8-yl)nicotinonitrile] and `C[C@H](NCC(=O)N1C[C@H]2CC[C@@H](C1)N2c1ccc(C#N)cn1)c1cccc2c1OC(F)(F)O2` [Example 68, 6-(3-(((S)-1-(2,2-difluorobcnzo[d][1,3]dioxol-4-yl)ethyl)glycyl)-3,8-diazabicyclo[3.2.1]octan-8-yl)nicotinonitrile] cannot be ordered by IC50: < 10 nM for the first, < 10 nM for the second.

`N#Cc1ccc(N2C3CCC2CN(C(=O)CNC2(c4ccc(F)cn4)CC2)C3)nc1` [Example 69, 6-(3-((1-(5-fluoropyridin-2-yl)cyclopropyl)glycyl)-3,8-diazabicyclo[3.2.1]octan-8-yl)nicotinonitrile] and `N#Cc1ccc(N2C3CCC2CN(C(=O)CNC2(c4cc(F)ccc4F)CC2)C3)nc1` [Example 71, 6-(3-((1-(2,5-difluorophenyl)cyclopropyl)glycyl)-3,8-diazabicyclo[3.2.1]octan-8-yl)nicotinonitrile] fall in the same range of IC50: 100 to 1000 nM for the first, 100 to 1000 nM for the second.

Compared with `COc1cc(C2(NCC(=O)N3CC4CCC(C3)N4c3ccc(C#N)cn3)CC2)c(F)cn1` [Example 74, 6-(3-((1-(5-fluoro-2-methoxypyridin-4-yl)cyclopropyl)glycyl)-3,8-diazabicyclo[3.2.1]octan-8-yl)nicotinonitrile], `COc1ccc(F)cc1C1(NCC(=O)N2CC3CCC(C2)N3c2ccc(C#N)cn2)CC1` [Example 76, 6-(3-((1-(5-fluoro-2-methoxyphenyl)cyclopropyl)glycyl)-3,8-diazabicyclo[3.2.1]octan-8-yl)nicotinonitrile] is lower in IC50: 10 to 100 nM for the first, < 10 nM for the second.

First: COc1c(F)cccc1C1(NCC(=O)N2CC3CCC(C2)N3c2ccc(C#N)cn2)CC1 [Example 77, 6-(3-((1-(3-fluoro-2-methoxyphenyl)cyclopropyl)glycyl)-3,8-diazabicyclo[3.2.1]octan-8-yl)nicotinonitrile]
Second: N#Cc1ccc(N2C3CC2CN(C(=O)CNC2(c4ccc(F)cc4F)CC2)C3)nc1 [Example 79, 6-(3-((1-(2,4-difluorophenyl)cyclopropyl)glycyl)-3,6-diazabicyclo[3.1.1]heptan-6-yl)nicotinonitrile]
The IC50 of the first is lower: < 10 nM for the first, 1000 to 10000 nM for the second. The first is the more potent here.

First: N#Cc1ccc(N2C3COCC2CN(C(=O)CNC2(c4ccc(F)cc4F)CC2)C3)nc1 [Example 78, 6-(7-((1-(2,4-difluorophenyl)cyclopropyl)glycyl)-3-oxa-7,9-diazabicyclo[3.3.1]nonan-9-yl)nicotinonitrile]
Second: N#Cc1ccc(N2C[C@H]3C[C@@H]2CN3C(=O)CNC2(c3ccc(F)cc3F)CC2)nc1 [Example 80, 6-((1R,4R)-5-((1-(2,4-difluorophenyl)cyclopropyl)glycyl)-2,5-diazabicyclo[2.2.1]heptan-2-yl)nicotinonitrile]
The IC50 of the first is lower: 100 to 1000 nM for the first, > 1000 nM for the second. The first is the more potent here.
